The remaining activity is the share of the control activity or signal that is left under treatment. As a reminder, the IC50 is the concentration at which inhibition is half-maximal.

From patent US20240018153A1, “BENZENESULFONAMIDE DERIVATIVES AND USES THEREOF” (2692372 ONTARIO, INC., priority 2020, published 2024) come the findings set out here.

Some results are limits rather than exact numbers.

Test [1] has as its target FGFR4 (Homo sapiens (Human), UniProt P22455). Briefly: HTRF KinEASE-TK kinase assay, FGFR4. The format is biochemical. The note with it: for remaining activity at 1 µM: read-out: % FGFR4 Remaining activity vs DMSO (1 μM, 3 h); for remaining activity at 10 µM: read-out: % FGFR4 Remaining activity vs DMSO (10 μM, 3 h). In a few lines: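 Promega FGFR4 at 0.333 ng/ul (5.12 nM) preincubated with or without inhibitor for 3 h at room temperature, then reaction started with biotinylated substrate and ATP. Stopped with EDTA detection buffer containing 31.25 nM SA-XL665 and Eu-antibody; after 60 min, HTRF 665/620 nm ratio read as substrate phosphorylation.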
(Time-resolved FRET reads energy transfer from a long-lived donor to a nearby acceptor.)

Test [2] addresses RIPK2 (Homo sapiens (Human), UniProt O43353). The test can be described thus: In vitro RIPK2 inhibition. The format is biochemical. The settings on record: for remaining activity at 1 µM: read-out: % RIPK2 Remaining activity vs DMSO (1 μM, 3 h); for remaining activity at 10 µM: read-out: % RIPK2 Remaining activity vs DMSO (10 μM, 3 h).
The target in test [3] is T1, BTK (Homo sapiens (Human), UniProt Q06187). Briefly: HTRF KinEASE-TK kinase assay, BTK. The test is classed as biochemical. The note with it: 3 h preincubation; for remaining activity at 1 µM: 1 μM compound, read-out: % BTK Remaining activity vs DMSO (1 μM, 3 h); for remaining activity at 10 µM: 10 μM compound, read-out: % BTK Remaining activity vs DMSO (10 μM, 3 h). The gist of the method:
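BTK activity in HTRF KinEASE-TK format, buffer containing 10 mM MnCl2, 5 mM MgCl2, 1 uM ATPγS and 1 mM TCEP; 45 min reaction with biotinylated substrate and ATP.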

In test [4] the target is BMX (Homo sapiens (Human), UniProt P51813). Briefly: HTRF KinEASE-TK kinase assay, BMX. The test is classed as biochemical. The settings on record: for remaining activity at 1 µM: 1 uM compound; for remaining activity at 1 µM / remaining activity at 10 µM: 3 h preincubation; for remaining activity at 10 µM: 10 uM compound; for IC50: dose response. In a few lines:
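Purchased BMX (0.333 ng/ul, 3.03 nM) was preincubated with or without inhibitor for 3 h at room temperature, then biotinylated substrate and ATP were added. Reactions were stopped with EDTA-containing buffer holding 31.25 nM SA-XL665 and Eu-antibody, and after 60 min phosphorylation was read as the HTRF 665/620 nm emission ratio.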

Test [5] deals with T1, BTK. The test can be described thus: Ramos RA1 cell lysis and immunoassay, total BTK degradation. The test is classed as cell-based. Further details: key to % BTK degradation (RAMOS, 24 h): Y: BTK bound in cells and BTK degradation occurred; concentration or dose not given beside the values. The settings on record: RAMOS cells. The gist of the method:
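Ramos RA1 cells treated with compound or DMSO for 24 h at 37° C., lysed in RIPA, analysed by Simple Western. Total BTK normalised to β-actin, pBTK (Y223) to total-protein reagent; both expressed relative to DMSO control.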

Test [6] concerns the target JAK3 (Homo sapiens (Human), UniProt P52333). Briefly: HTRF KinEASE-TK kinase assay, JAK3. The format is biochemical. The note with it: for remaining activity at 1 µM: read-out: % JAK3 Remaining activity vs DMSO (1 μM, 3 h); for remaining activity at 10 µM: read-out: % JAK3 Remaining activity vs DMSO (10 μM, 3 h). In a few lines: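 Promega JAK3 at 0.21 nM was preincubated with inhibitor for 3 h at room temperature before biotinylated substrate and ATP were added. The reaction was stopped with EDTA detection buffer containing 31.25 nM SA-XL665 and Eu-antibody. After 60 min, the HTRF 665/620 nm emission ratio reflected substrate phosphorylation.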

Test [7] has as its target EGFR (Homo sapiens (Human), UniProt P00533). Briefly: HTRF KinEASE-TK kinase assay, EGFR. The test is classed as biochemical. The settings on record: 3 h preincubation; for remaining activity at 1 µM: 1 μM compound, read-out: % EGFR Remaining activity vs DMSO (1 μM, 3 h); for remaining activity at 10 µM: 10 μM compound, read-out: % EGFR Remaining activity vs DMSO (10 μM, 3 h). The gist of the method: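 HTRF KinEASE-TK format: EGFR pre-incubated with compound at 1 and 10 uM final (0.5% DMSO) in kinase buffer with 2 mM MnCl2, 5 mM MgCl2 and 1 mM TCEP.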

BMX, sequence (P51813 whole entry): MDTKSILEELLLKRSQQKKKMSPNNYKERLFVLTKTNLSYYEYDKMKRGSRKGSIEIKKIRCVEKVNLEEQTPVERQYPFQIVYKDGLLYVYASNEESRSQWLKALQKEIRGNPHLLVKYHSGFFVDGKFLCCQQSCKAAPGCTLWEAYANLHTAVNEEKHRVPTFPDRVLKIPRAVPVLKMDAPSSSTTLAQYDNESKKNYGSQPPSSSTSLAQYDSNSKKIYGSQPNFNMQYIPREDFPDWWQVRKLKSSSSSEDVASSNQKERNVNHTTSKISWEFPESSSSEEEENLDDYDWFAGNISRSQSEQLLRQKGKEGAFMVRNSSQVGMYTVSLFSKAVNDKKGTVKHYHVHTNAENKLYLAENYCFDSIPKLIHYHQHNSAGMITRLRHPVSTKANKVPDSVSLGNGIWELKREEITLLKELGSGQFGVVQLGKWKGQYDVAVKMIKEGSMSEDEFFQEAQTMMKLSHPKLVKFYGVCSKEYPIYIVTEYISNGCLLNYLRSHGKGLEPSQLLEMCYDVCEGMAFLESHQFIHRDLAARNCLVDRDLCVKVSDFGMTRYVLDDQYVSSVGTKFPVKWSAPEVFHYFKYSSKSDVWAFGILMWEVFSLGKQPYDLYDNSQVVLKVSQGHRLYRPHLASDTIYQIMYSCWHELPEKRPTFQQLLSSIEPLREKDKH
T1 sequence (Q06187 whole entry): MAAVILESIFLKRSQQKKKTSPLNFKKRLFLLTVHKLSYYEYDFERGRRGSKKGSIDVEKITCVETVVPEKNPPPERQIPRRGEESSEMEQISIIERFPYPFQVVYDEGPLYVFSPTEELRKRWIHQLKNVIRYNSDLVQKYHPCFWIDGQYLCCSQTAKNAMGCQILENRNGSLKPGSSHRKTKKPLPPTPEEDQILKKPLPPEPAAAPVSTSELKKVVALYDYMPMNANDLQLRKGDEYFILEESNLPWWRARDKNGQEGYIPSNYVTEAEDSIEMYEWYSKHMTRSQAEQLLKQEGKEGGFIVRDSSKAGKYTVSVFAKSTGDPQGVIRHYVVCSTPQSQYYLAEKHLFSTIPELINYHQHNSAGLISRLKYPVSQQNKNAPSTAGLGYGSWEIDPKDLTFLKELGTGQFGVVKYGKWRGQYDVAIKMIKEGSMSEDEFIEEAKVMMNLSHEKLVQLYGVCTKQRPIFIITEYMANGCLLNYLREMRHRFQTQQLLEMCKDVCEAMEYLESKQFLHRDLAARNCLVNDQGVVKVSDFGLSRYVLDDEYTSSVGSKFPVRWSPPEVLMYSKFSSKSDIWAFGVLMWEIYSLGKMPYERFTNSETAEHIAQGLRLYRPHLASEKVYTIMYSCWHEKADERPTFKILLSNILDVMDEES
JAK3, sequence (P52333 781-1124): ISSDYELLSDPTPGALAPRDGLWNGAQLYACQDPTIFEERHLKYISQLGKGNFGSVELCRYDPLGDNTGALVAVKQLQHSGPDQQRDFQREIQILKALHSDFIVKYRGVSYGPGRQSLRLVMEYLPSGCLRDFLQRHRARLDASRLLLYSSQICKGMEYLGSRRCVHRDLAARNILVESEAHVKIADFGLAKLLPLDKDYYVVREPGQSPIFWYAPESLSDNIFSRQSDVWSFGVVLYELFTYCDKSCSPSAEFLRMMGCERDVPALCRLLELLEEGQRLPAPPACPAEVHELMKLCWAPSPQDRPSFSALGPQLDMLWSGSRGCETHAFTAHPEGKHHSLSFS
EGFR, sequence (P00533 25-1210): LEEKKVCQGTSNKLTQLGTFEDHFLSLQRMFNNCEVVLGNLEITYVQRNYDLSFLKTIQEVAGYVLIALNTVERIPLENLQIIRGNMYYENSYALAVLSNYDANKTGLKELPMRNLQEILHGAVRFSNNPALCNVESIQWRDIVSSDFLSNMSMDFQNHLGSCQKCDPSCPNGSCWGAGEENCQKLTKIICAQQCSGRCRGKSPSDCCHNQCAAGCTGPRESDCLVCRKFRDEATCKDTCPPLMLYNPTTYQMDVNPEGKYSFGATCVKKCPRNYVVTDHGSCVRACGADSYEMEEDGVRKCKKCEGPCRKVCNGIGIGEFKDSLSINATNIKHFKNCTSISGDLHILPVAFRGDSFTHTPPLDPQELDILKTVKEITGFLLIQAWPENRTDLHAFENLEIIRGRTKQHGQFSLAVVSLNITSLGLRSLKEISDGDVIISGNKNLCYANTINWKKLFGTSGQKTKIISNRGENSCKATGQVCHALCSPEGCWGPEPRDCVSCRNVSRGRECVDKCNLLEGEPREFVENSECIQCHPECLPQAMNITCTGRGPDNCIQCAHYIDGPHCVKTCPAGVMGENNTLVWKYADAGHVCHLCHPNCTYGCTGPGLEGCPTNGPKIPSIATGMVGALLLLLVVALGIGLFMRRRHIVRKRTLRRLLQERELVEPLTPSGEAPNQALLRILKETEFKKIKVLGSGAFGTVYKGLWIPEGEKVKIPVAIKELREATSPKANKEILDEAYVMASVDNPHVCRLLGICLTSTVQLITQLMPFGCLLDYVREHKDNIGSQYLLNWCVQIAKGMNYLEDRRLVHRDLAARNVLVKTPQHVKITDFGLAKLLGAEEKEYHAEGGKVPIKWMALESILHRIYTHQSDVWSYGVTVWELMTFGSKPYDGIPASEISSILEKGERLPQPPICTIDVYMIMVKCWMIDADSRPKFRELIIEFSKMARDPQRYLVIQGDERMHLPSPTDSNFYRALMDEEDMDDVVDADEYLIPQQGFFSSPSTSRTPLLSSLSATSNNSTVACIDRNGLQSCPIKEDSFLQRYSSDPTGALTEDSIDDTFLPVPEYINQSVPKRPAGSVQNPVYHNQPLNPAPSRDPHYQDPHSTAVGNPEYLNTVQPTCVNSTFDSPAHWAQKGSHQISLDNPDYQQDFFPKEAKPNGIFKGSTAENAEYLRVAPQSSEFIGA
RIPK2, sequence (O43353 whole entry, species assumed): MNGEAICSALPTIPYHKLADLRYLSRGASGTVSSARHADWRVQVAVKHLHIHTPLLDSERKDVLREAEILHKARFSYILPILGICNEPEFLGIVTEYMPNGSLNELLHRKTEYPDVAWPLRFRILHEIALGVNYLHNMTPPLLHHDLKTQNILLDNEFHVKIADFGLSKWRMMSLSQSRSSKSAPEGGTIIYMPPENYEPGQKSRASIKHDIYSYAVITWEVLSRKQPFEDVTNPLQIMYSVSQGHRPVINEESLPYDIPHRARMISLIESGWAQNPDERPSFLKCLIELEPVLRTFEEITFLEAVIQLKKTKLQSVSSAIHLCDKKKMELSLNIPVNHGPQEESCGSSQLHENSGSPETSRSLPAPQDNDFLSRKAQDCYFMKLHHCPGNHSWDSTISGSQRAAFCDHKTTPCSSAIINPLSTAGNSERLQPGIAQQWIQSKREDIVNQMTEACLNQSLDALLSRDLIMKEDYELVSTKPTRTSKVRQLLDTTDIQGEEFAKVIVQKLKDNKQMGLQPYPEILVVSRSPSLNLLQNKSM
FGFR4, sequence (P22455 22-802): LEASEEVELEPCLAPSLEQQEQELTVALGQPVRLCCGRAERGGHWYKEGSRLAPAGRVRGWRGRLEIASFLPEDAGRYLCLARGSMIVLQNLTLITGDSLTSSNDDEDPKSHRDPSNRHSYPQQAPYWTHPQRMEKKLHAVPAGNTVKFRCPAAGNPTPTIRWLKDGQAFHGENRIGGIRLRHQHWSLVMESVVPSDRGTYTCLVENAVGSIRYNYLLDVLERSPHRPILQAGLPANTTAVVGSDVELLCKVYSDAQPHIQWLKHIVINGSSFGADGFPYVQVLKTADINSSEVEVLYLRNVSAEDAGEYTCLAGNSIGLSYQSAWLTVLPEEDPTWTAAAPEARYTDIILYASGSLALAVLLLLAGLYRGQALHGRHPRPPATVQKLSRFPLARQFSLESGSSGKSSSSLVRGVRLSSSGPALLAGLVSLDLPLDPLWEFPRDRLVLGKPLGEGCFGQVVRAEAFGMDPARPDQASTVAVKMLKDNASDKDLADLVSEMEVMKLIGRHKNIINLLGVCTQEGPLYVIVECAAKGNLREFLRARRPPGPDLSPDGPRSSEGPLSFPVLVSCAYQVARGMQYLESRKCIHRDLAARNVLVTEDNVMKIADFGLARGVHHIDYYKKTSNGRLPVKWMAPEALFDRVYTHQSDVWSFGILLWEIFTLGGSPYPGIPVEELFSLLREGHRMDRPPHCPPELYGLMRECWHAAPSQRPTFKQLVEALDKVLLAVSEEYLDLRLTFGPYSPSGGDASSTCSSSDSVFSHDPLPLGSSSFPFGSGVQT

With `CN(C)S(=O)(=O)c1c(F)c(F)c(F)c(F)c1C(=O)NCCNc1ncnc2[nH]ccc12` [Compound I-47, N-(2-((7H-pyrrolo[2,3-d]pyrimidin-4-yl)amino)ethyl)-2-(N,N-dimethylsulfamoyl)-3,4,5,6-tetrafluorobenzamide], the remaining activity at 1 µM in test [1] was 50 to 90%; in test [2], less than 50%; in test [3], less than 50%; in test [4], less than 50%; in test [6] it was less than 50%; in test [7], greater than 90%. The remaining activity at 10 µM in test [1] was 50 to 90%; in test [2], less than 50%; in test [3], less than 50%; in test [4] it was less than 50%; in test [6], less than 50%; in test [7], greater than 90%. In addition, the IC50 in test [4] and in test [6] (dose response) was less than 1 µM throughout. In addition, the “% BTK degradation (RAMOS, 24 h)” value in test [5] is listed as “Y”.

`NS(=O)(=O)c1c(F)c(F)c(F)c(F)c1C(=O)NCCNc1ncnc2[nH]ccc12` [Compound I-48]: the remaining activity at 1 µM in test [1] was greater than 90%; in test [2] it was less than 50%; in test [3], less than 50%; in test [4], less than 50%; in test [6], 50 to 90%; in test [7], greater than 90%. In addition, the remaining activity at 10 µM is 50 to 90% in test [1]; less than 50% in test [2]; less than 50% in test [3]; less than 50% in test [4]; less than 50% in test [6]; greater than 90% in test [7]. Moreover, the IC50 in test [4] was less than 1 µM. Besides, in test [5], the “% BTK degradation (RAMOS, 24 h)” value is “Y”.

Take `COCCOc1ccc(Nc2ncc(F)c(Nc3cccc(NC(=O)c4c(F)c(F)c(F)c(F)c4S(=O)(=O)N(C)C)c3)n2)cc1` [Compound I-59, 2-(N,N-dimethylsulfamoyl)-3,4,5,6-tetrafluoro-N-(3-((5-fluoro-2-((4-(2-methoxyethoxy)phenyl)amino)pyrimidin-4-yl)amino)phenyl)benzamide]: in test [1] (dose response), the concentration for half-maximal inhibition (IC50) was less than 1 µM. In addition, the remaining activity at 1 µM is less than 50% in test [1]; less than 50% in test [2]; less than 50% in test [3]; less than 50% in test [4]; 50 to 90% in test [6]; greater than 90% in test [7]. Also, the remaining activity at 10 µM was less than 50% in test [1]; less than 50% in test [2]; less than 50% in test [3]; less than 50% in test [4]; 50 to 90% in test [6]; greater than 90% in test [7]. In addition, the “% BTK degradation (RAMOS, 24 h)” value in test [5] is on record as “Y”.
